Tested on: guinea pig skin
Assay: Pigment changes with topical application on guinea pig skin (melanin stimulation)
Format: in vivo
Method: Compounds 10, 117 and 123 in a solution of 75% PG/25% DMSO at 300 μM and 600 μM were provided in light tight containers and stored at 4 degrees C. Solutions were brought to room temp and vortexed prior to each use. Female Guinea pigs were shaved with electric clippers and the remaining stubble removed with Nair. The dorsal area of each guinea pig was divided into 2-3 sections. Treatment with compounds/vehicle began immediately after Nair application. 25 μL of each solution was applied to the assigned treatment site twice daily for 5 days. Hair removal, monitoring and photography continued once weekly for 30 days. Photos were taken with a Nikon D80 Digital SLR camera and Miravex Antera Melanin sensing camera.

[1] = 0.025 mL of 600 μM applied on guinea pig skin twice daily for five consecutive days, by day 15

| Molecule | melanin stimulation relative to surrounding untreated skin [1] | melanin stimulation relative to surrounding untreated skin (0.025 mL of 300 μM applied on guinea pig skin twice daily for five consecutive days, by day 8) |
| --- | --- | --- |
| Thymidine dinucleotide 5′-phosphate [reference compound] | marked melanin stimulation |  |
| Cc1cn(CC(Cn2cc(C)c(=O)[nH]c2=O)C(=O)O)c(=O)[nH]c1=O [Compound 117] | marked melanin stimulation |  |
| C[C@@]12C(=O)NC(=O)N3CCCN4C(=O)NC(=O)[C@]1(C)[C@H]4[C@H]32 [Compound 10] |  | marked melanin stimulation |
